Columns and labels:
Experiment in all cases: area under dose-response curve of surviving fraction (unscaled, Aref=0) (surviving fraction x log10(nM)); higher = more resistant
Conditions in all cases: exposure time: 5 days; dose range 0.5-1000 nM
[1] = compound: COc1cc2ncnc(Nc3ccc(F)c(Cl)c3)c2cc1NC(=O)/C=C/CN1CCCCC1
How it was run: (§1)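 Tumour cell lines in 384-well plates were exposed to eight inhibitor concentrations, from 0.5 to 1000 nM, for five days, and viability was read by CellTiter-Glo luminescence in three screens per line. Signals were normalised to DMSO-only wells, and 3-parameter logistic regression in the drc R package fitted dose-response survival curves to the surviving fractions. Area under the curve is given as the unscaled activity area. That area is taken over log10 dose with Aref = 0.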

[2] = compound: C[C@]12CC[C@H](O)CC1=CC[C@@H]1[C@@H]2CC[C@]2(C)C(c3cccnc3)=CC[C@@H]12 [ABIRATERONE]
How it was run: as §1

[3] = compound: COc1cc2c(Oc3ccc(NC(=O)C4(C(=O)Nc5ccc(F)cc5)CC4)cc3F)ccnc2cc1OCCCN1CCOCC1 [FORETINIB]
How it was run: as §1

[4] = compound: CNC(=O)c1cc(Oc2ccc(NC(=O)Nc3ccc(Cl)c(C(F)(F)F)c3)cc2)ccn1 [SORAFENIB]
How it was run: as §1

[5] = compound: Oc1nc(-c2ccc(C(F)(F)F)cc2)nc2c1CSCC2 [XAV-939]
How it was run: as §1

[6] = compound: Cc1nc(Nc2ncc(C(=O)Nc3c(C)cccc3Cl)s2)cc(N2CCN(CCO)CC2)n1 [DASATINIB]
How it was run: as §1

[7] = compound: C[C@@H](Oc1cc(-c2cnn(C3CCNCC3)c2)cnc1N)c1c(Cl)ccc(F)c1Cl
How it was run: as §1

[8] = compound: NS(=O)(=O)OC[C@@H]1C[C@@H](n2ccc3c(N[C@H]4CCc5ccccc54)ncnc32)C[C@@H]1O [MLN-4924]
How it was run: as §1

[9] = compound: CN1CCN(c2nc(C3=C(c4c[nH]c5ccccc45)C(=O)NC3=O)c3ccccc3n2)CC1 [SOTRASTAURIN/AEB071]
How it was run: as §1

[10] = compound: O=C(c1cc(Cc2n[nH]c(=O)c3ccccc23)ccc1F)N1CCN(C(=O)C2CC2)CC1 [OLAPARIB]
How it was run: as §1

[11] = compound: CCn1c(C(=O)N(C2CC2)C2CC2)cc2c3c(ncn3C)c(Nc3cc(C)n(C)n3)nc21
How it was run: as §1

[12] = compound: CNCc1ccc(-c2[nH]c3cc(F)cc4c3c2CCNC4=O)cc1
How it was run: as §1

[13] = compound: Cn1nnc2c(C(N)=O)ncn2c1=O [TEMOZOLOMIDE]
How it was run: as §1

[14] = compound: C[C@@H](Oc1cc(-c2cnn(C3CCNCC3)c2)cnc1N)c1c(Cl)ccc(F)c1Cl [CRIZOTINIB]
How it was run: as §1

CAL72 BONE
area under dose-response curve [1]: 3.26
area under dose-response curve [2]: 3.67
area under dose-response curve [3]: 3.09
area under dose-response curve [4]: 3.59
area under dose-response curve [5]: 3.18
area under dose-response curve [6]: 1.77
area under dose-response curve [7]: 3.32
area under dose-response curve [8]: 2.83
area under dose-response curve [9]: 3.55
area under dose-response curve [10]: 3.24
area under dose-response curve [11]: 3.63
area under dose-response curve [12]: 3.26
area under dose-response curve [13]: 3.47

93VU HEADNECK
area under dose-response curve [1]: 1.8
area under dose-response curve [2]: 3.9
area under dose-response curve [3]: 3.15
area under dose-response curve [4]: 3.6
area under dose-response curve [5]: 3.51
area under dose-response curve [6]: 1.68
area under dose-response curve [7]: 3.15
area under dose-response curve [8]: 2.42
area under dose-response curve [9]: 3.06
area under dose-response curve [11]: 3.21
area under dose-response curve [12]: 3.13
area under dose-response curve [14]: 3.62
area under dose-response curve [13]: 3.5

SUM149 BREAST
area under dose-response curve [1]: 2.13
area under dose-response curve [2]: 3.16
area under dose-response curve [3]: 2.82
area under dose-response curve [4]: 3.9
area under dose-response curve [5]: 2.66
area under dose-response curve [6]: 1.49
area under dose-response curve [7]: 2.99
area under dose-response curve [8]: 2.38
area under dose-response curve [9]: 2.96
area under dose-response curve [10]: 2.46
area under dose-response curve [11]: 3.48
area under dose-response curve [12]: 2.39
area under dose-response curve [14]: 3.15
area under dose-response curve [13]: 3.57

SCC90 HEADNECK
area under dose-response curve [1]: 1.84
area under dose-response curve [2]: 4.01
area under dose-response curve [5]: 3.4
area under dose-response curve [6]: 2.21
area under dose-response curve [7]: 3.19
area under dose-response curve [8]: 1.64
area under dose-response curve [9]: 2.96
area under dose-response curve [10]: 3.24
area under dose-response curve [11]: 3.25
area under dose-response curve [12]: 3.19
area under dose-response curve [14]: 3.27
area under dose-response curve [13]: 3.49

S68 BREAST
area under dose-response curve [1]: 2.49
area under dose-response curve [2]: 3.31
area under dose-response curve [3]: 2.65
area under dose-response curve [4]: 3.49
area under dose-response curve [5]: 3.19
area under dose-response curve [6]: 1.44
area under dose-response curve [7]: 2.76
area under dose-response curve [8]: 2.21
area under dose-response curve [9]: 3.45
area under dose-response curve [10]: 2.85
area under dose-response curve [12]: 2.67
area under dose-response curve [14]: 2.72
area under dose-response curve [13]: 3.53

U2OS BONE
area under dose-response curve [1]: 3.24
area under dose-response curve [2]: 3.6
area under dose-response curve [3]: 3
area under dose-response curve [4]: 3.5
area under dose-response curve [5]: 3.25
area under dose-response curve [6]: 2.63
area under dose-response curve [7]: 2.88
area under dose-response curve [8]: 2.83
area under dose-response curve [9]: 3.36
area under dose-response curve [10]: 3.26
area under dose-response curve [11]: 3.44
area under dose-response curve [12]: 3.17
area under dose-response curve [14]: 3.06
area under dose-response curve [13]: 3.39

MCF7 BREAST
area under dose-response curve [1]: 3.16
area under dose-response curve [2]: 3.3
area under dose-response curve [3]: 2.96
area under dose-response curve [4]: 2.97
area under dose-response curve [5]: 3.19
area under dose-response curve [6]: 2.56
area under dose-response curve [7]: 2.71
area under dose-response curve [8]: 2.24
area under dose-response curve [9]: 3.11
area under dose-response curve [10]: 3.07
area under dose-response curve [11]: 2.83
area under dose-response curve [12]: 3.04
area under dose-response curve [14]: 3.04
area under dose-response curve [13]: 3.08

VCAP PROSTATE
area under dose-response curve [1]: 3.12
area under dose-response curve [2]: 3.72
area under dose-response curve [3]: 3.06
area under dose-response curve [4]: 3.73
area under dose-response curve [5]: 3.13
area under dose-response curve [6]: 3.15
area under dose-response curve [7]: 2.88
area under dose-response curve [8]: 2.21
area under dose-response curve [9]: 3.27
area under dose-response curve [10]: 3.59
area under dose-response curve [11]: 3.54
area under dose-response curve [12]: 3.23
area under dose-response curve [14]: 3.04
area under dose-response curve [13]: 3.44

YAMATO SYNOVIAL
area under dose-response curve [1]: 4.37
area under dose-response curve [2]: 4.72
area under dose-response curve [3]: 2.34
area under dose-response curve [4]: 4.27
area under dose-response curve [5]: 4.04
area under dose-response curve [6]: 2.5
area under dose-response curve [7]: 1.83
area under dose-response curve [9]: 3.66
area under dose-response curve [11]: 4.14
area under dose-response curve [14]: 2.3
area under dose-response curve [13]: 4.22

ASKA SYNOVIAL
area under dose-response curve [2]: 3.92
area under dose-response curve [3]: 2.97
area under dose-response curve [4]: 3.67
area under dose-response curve [5]: 3.73
area under dose-response curve [6]: 3.09
area under dose-response curve [7]: 1.91
area under dose-response curve [8]: 2.57
area under dose-response curve [9]: 3.57
area under dose-response curve [11]: 3.49
area under dose-response curve [12]: 2.86
area under dose-response curve [14]: 2.02
area under dose-response curve [13]: 3.76
